Literature values in patent US20250360113A1, “ADMINISTRATION OF DHB TO INCREASE BENEFIT OF LOSING WEIGHT OF INTERMITTENT FASTING” (NANJING NUTRABUILDING BIO-TECH CO., LTD., priority 2023, published 2025).

Key:
[1] = obese db/db mice; cited from earlier work
brown adipocyte = conditions: by increasing transcription of PRDM16 via AMPK activation and PGC-1α recruitment; cited from earlier work

Structure (SMILES): COc1ccc2cc3[n+](cc2c1OC)CCc1cc2c(cc1-3)OCO2 [BBR, berberine]
- energy expenditure and adaptive thermogenesis [1]: increase
- thermogenic program in BAT [1]: promote
- weight gain [1]: reduce
- brown adipocyte differentiation and brown adipose tissues (BAT) thermogenesis (brown adipocyte): promote
